What was measured:
[1] = system: BT474 human breast cancer cells; experiment: In vitro growth inhibition assay ([3H] thymidine incorporation), BT474; format: cell-based; conditions: 0.01 μM Lapatinib, 50 μg/ml pAb, 72 h, FIG. 11A
Description: (§1) The antiproliferative effect of vaccine induced anti HER2 polyclonal antibodies (pAb) in combination with Lapatinib was evaluted on human breast cancer cells overexpressing the HER2/neu molecule (BT474 and SKBR3 cells) using the [^3H] thymidine incorporation method. Briefly, 10e4 cells were seeded in 200 μl, in triplicate, in 96-w plates and incubated for 72 h at 37° C. in • 1) medium; • 2) medium containing Lapatinib alone (0.01 μM); • 3) medium containing pAb alone (50 μg/ml); • 4) medium containing pre-immune pAb (TA2021) (50 μg/ml); • 5) a combination of (2) Lapatinib (0.01 μM ) and (3) pAb (50 μg/ml); or • 6) a combination of (2) Lapatinib (0.01 μM ) and (4) pre-immune pAb (TA2021) (50 μg/ml).
(§2) 1 μCi of [^3H] Thymidine (5 Ci/mmol; Amersham) was added for an additional 24 h after which cells were harvested by trypsinisation onto filter plates and the incorporated radioactivity was counted in a beta counter. Results were expressed in cpm and the percentage of growth inhibition was calculated referring to the medium.

[2] = system: SKBR3 human breast cancer cells; experiment: In vitro growth inhibition assay ([3H] thymidine incorporation), SKBR3; format: cell-based; conditions: 0.01 μM Lapatinib, 50 μg/ml pAb, 72 h, FIG. 11B
Description: as §1, §2

BT474 cells = experiment: Apoptosis by annexin V staining and flow cytometry, BT474; format: cell-based, human; conditions: lapatinib 0.1 μM, pAb 100 μg/ml, trastuzumab 10 μg/ml, 72 hr, FIG. 12A top
Description: After harvesting the cells with trypsin-EDTA, 5000 cells in 50 μl were sampled on 96-well microplates. The cells were stained directly in the microplate with Annexin V-PE and Nexin 7-AAD in 1× Nexin Buffer in a 200 μl final reaction volume. After incubating for 20 minutes at room temperature, the reaction samples were ready to be acquired in the Guava PCA-96-system (Guava Technology, Inc., Hayward, Calif. USA).
7-AAD binds to cellular nuclear material after cellular membranes break down in late apoptosis. Annexin-V staining indicates early apoptotic changes that precede the loss of cellular membrane integrity. Use of Annexin-V in conjunction with 7-amino-actinomycin D (7-AAD) thus can identify both early and late apoptotic cells.
Flow cytometry results were graphed as dot plot results (not shown) with annexin V on the X-axis and 7-AAD on the Y-axis. Low annexin V and low 7-AAD represented viable cells; low annexin V and high 7-AAD indicated nuclear debris; cells with high annexin V staining indicated apoptotic cells.

survivin = experiment: Western blot of steady state survivin protein, BT474 cells; format: cell-based, human; conditions: lapatinib 0.1 μM, pAb 100 μg/ml, trastuzumab 10 μg/ml, 72 hr, FIG. 12A bottom
Description: (§3) To assess the levels of various proteins in cells, whole cell extracts were prepared by scraping cells off petri dishes, washing the cell pellet twice in phosphate buffered saline (PBS), and then resuspending the pellet in two-packed-cell volumes of RIPA buffer(150 mM NaCl, 50 mM Tris-HCl, pH 7.5, 0.25% (w/v) deoxycholate, 1% NP-40, 5 mM sodium orthovanadate, 2 mM sodium fluoride, and a protease inhibitor cocktail). Protein concentrations were determined using a modification of the Bradford method (Bio-Rad Laboratory). […] The immunoprecipitates were separated by 4-15% gradient SDS-polyacrylamide […] gel electrophoresis (SDS-PAGE), and ErbB receptors were detected by Western Blot with anti-ErbB receptor antibodies.
(§4) Steady state levels of Survivin, total ErbB2, phosphorylated ErbB2 (pErbB2 or pTyr), total Erk1/2 , activated Erk1/2 (p-Erk), total pErbB3, activated pErbB3 (pErbB3), total AKT protein and activated Akt (p-Akt) protein were assessed by Western blot. Levels of pErbB2 were assessed using an antibody that bound to multiple tyrosine-phosphorylated forms of ErbB2 (i.e., the antibody was not phosphorylation-site specific). […]
(§5) For Western blot, equal amounts of proteins were resolved by either 7.5% or 4-15% gradient SDS polyacrylamide gel electrophoresis under reducing conditions. […] Efficiency and equal loading of proteins was evaluated by Ponceau S staining. […]

phospho-ErbB2 (p-ErbB2) = target: T1, phospho-ErbB2 (p-ErbB2) (Homo sapiens, UniProt P04626); experiment: Western blot of activated phospho-ErbB2, BT474 cells; format: cell-based; conditions: lapatinib 0.1 μM, pAb 100 μg/ml, trastuzumab 10 μg/ml, 72 hr, FIG. 12A bottom
T1 construct: whole cell extracts were prepared by scraping cells off petri dishes; host or cells: BT474
Description: as §3, §4, §5

total ErbB2 = target: T2, total ErbB2 (Homo sapiens, UniProt P04626); experiment: Western blot of total ErbB2, BT474 cells; format: cell-based; conditions: lapatinib 0.1 μM, pAb 100 μg/ml, trastuzumab 10 μg/ml, 72 hr, FIG. 12A bottom
T2 construct: whole cell extracts were prepared by scraping cells off petri dishes; host or cells: BT474
Description: as §3, §4, §5

phospho-Erk1/2 = experiment: Western blot of activated phospho-Erk1/2, BT474 cells; format: cell-based, human; conditions: 72 hr, FIG. 13
Description: as §3, §4, §5

phospho-Akt = experiment: Western blot of activated phospho-Akt, BT474 cells; format: cell-based, human; conditions: 72 hr, FIG. 13
Description: as §3, §4, §5

T2 sequence (P04626 23-1255): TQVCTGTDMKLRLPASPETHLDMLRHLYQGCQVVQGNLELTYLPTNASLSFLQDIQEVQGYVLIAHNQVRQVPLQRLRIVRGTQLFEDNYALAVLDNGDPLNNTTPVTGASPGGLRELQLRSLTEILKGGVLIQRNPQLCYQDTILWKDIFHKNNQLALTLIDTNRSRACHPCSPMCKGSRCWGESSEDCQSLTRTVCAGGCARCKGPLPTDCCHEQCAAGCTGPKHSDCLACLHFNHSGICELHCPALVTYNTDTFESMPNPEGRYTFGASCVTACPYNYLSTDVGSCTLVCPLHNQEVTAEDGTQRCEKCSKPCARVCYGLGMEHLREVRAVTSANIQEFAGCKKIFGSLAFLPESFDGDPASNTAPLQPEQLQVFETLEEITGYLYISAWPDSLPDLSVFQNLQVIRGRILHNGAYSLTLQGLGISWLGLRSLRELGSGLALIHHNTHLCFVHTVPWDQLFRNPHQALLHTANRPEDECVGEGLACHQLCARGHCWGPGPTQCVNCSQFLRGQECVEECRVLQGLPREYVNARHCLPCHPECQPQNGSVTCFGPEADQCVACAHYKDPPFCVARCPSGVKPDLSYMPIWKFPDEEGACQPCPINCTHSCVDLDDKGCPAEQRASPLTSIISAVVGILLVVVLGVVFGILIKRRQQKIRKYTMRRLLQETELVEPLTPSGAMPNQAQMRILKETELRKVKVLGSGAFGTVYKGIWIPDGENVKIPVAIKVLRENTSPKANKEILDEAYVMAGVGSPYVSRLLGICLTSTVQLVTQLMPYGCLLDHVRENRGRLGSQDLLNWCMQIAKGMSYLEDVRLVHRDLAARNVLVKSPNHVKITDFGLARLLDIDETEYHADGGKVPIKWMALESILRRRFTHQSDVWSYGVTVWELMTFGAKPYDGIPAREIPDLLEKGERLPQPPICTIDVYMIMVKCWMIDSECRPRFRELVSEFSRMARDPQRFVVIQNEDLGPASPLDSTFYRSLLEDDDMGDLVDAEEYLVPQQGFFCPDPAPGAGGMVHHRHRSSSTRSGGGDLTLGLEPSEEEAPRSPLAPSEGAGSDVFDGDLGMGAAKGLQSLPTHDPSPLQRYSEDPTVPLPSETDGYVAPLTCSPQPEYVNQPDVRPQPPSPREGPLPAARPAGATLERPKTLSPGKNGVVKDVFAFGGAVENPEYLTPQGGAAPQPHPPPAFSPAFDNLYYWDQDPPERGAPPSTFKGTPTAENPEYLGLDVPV
T1 sequence (P04626 23-1255): as above

For `CS(=O)(=O)CCNCc1ccc(-c2ccc3ncnc(Nc4ccc(OCc5cccc(F)c5)c(Cl)c4)c3c2)o1` [lapatinib, N-{3-Chloro-4-[(3-fluorobenzyl)oxy]phenyl}-6-[5-({[2-(methanesulphonyl)ethyl]amino}methyl)-2-furyl]-4-quinazolmamine], the growth inhibition [1] was “only modest growth inhibition”, the growth inhibition [2] was “only modest growth inhibition” and the apoptosis (BT474 cells) was “slight increase in apoptosis”. The survivin protein expression (survivin) was “inhibited”, the “steady-state levels of activated, phosphorylated ErbB2 protein (pErbB2)” value (phospho-ErbB2 (p-ErbB2)) was “inhibited” and the “total ErbB2 protein” value (total ErbB2) was “without affecting total ErbB2 protein”. The “steady state levels of pErk1/2” value (phospho-Erk1/2) was “reduced” and the “steady state levels of pAkt” value (phospho-Akt) was “reduced”.
